# According to patent publication US10774084B2, “Adenine derivatives and their use as UV-photoprotective agents” (UNIVERZITA PALACKEHO V OLOMOUCI, priority 2015, dated 2020):
# Legend:
# [1] = system: Normal human dermal fibroblasts (NHDF); experiment: In vitro phototoxicity test (neutral red) on NHDF; type: cell-based
# Procedure: Phototoxic potential of test compound was determined by modified in vitro test validated phototoxicity evaluation (Spielmann H, Balls M, Dupuis J, Pape W J, Pechovitch G, de Silva O, Holzhiitter H G, Clothier R, Desolle P, Gerberick F, Liebsch M, Lovell W W, Maurer T, Pfannenbecker U, Potthast J M, Csato M, Sladowski D, Steiling W, Brantom P. The International EU/COLIPA In Vitro Phototoxicity Validation Study: Results of Phase II (Blind Trial). Part 1: The 3T3 NRU Phototoxicity Test. Toxicol In Vitro. 1998; 12:305-27). Normal human dermal fibroblasts (NHDF) were used as an in vitro model. Cells were isolated from tissue specimens obtained from healthy patients undergoing plastic surgery at the Department of Plastic and Aesthetic Surgery (University Hospital Olomouc). The use of skin tissue was in accordance with the Ethics Committee of the University Hospital and Faculty of Medicine and Dentistry, Palacky University, Olomouc and all patients signed written informed consent. Fibroblasts were used between the 2nd and 4th passage. For all experiments the fibroblasts were seeded onto 96-well plates at a density of 0.8×10^5 cells/ml (0.2 ml per well) of cultivation medium (DMEM supplemented with fetal calf serum (10%, v/v), penicillin ([…]) and streptomycin (100 U/ml)). Test substances included compounds number 1, 3, 9, 15 and 20. Compounds were dissolved in DMSO and then diluted in serum free medium (DMEM supplemented with penicillin ([…]) and streptomycin (100 U/ml)). After 24 h incubation was cultivation medium changed to serum free medium containing test compound or DMSO (negative control). The final applied concentrations range 3.9-125 μmol/l. As a control, serum free medium supplemented with appropriate concentration of DMSO (0.5%, v/v) was used. In parallel with test compound, chlorpromazine (CPZ; 0.8-50 μmol/l) was used as a known phototoxic compound. The test compound was in parallel applied on two 96-well plates with NHDF. After 60 minutes incubation with test compound medium was discarded, cells were washed two-times with PBS and PBS supplemented with glucose (1 mg/ml) was applied. A plate was then exposed to a non-cytotoxic dose of UVA radiation (5.0 J/cm^2) using a solar simulator SOL 500 (Dr. Hoenle Technology, Germany) equipped with a H1 filter transmitting wavelengths of 320-400 nm. Intensity of UVA radiation was evaluated before each irradiation by UVA-meter. A control (non-irradiated) plate was for the period of irradiation incubated in dark. After UVA exposure PBS with glucose was discarded and serum free medium was applied. After 24 hours (37° C., 5% CO2) cell damage was evaluated by neutral red (NR) incorporation into viable cells. Medium was discarded and NR solution (0.03% w/v, PBS) was applied. After 60 minutes NR solution was discarded, cells were fixed with a mixture of formaldehyde (0.5%, v/v) and CaCl2 (1%, m/v) in ratio 1:1 and then NR was dissolved in methanol (50%, v/v) with acetic acid (1%, v/v). After 5 minutes of intensive shaking absorbance was measured at 540 nm. Experiments were performed in four independent repetitions with use of cells from four donors to minimize individual sensitivity of donor cells. Phototoxic effect was evaluated as % of viability of control cells that was calculated from experimental data (absorbance) according to the following equation:
# [formula] • AS . . . absorbance of sample (cells pre-incubated with test compound in serum free medium and irradiated) • AC . . . absorbance of control (cells pre-incubated with DMSO in serum free medium and irradiated) • AB . . . absorbance of background (extraction solution)
# HaCaT = experiment: In vitro UVA/UVB photoprotection test on HaCaT; type: cell-based, human
# Procedure: Spontaneously Immortalized Aneuploid Human Keratinocyte Cell Line (HaCaT) was bought from CLS (Eppeheim, Germany) and used as an in vitro model. For all experiments the keratinocytes were seeded onto 96-well plates at a density of 1.6×10^5 cells/ml (0.2 ml per well) of growth medium (DMEM supplemented with fetal bovine serum (10%), penicillin ([…]) and streptomycin (100 U/ml)).
# Test substances included compounds number 3, 9, 15 and 20. Compounds were dissolved in DMSO and then diluted in serum free medium (DMEM supplemented penicillin ([…]) and streptomycin (100 U/ml)). After 24 h incubation was growth medium changed to serum free medium containing test compounds. The final applied concentration range was 3.9-31.25 μmol/l. As a control, serum free medium supplemented with appropriate concentration of DMSO (0.5%, v/v) was used. Rosmarinic acid was used as positive control. After 60 minutes incubation with test compounds medium was discarded, cells were washed two-times with PBS and PBS supplemented with glucose (1 mg/ml) was applied. To study UVA photoprotection, a plate was exposed to a cytotoxic dose of UVA radiation (10 J/cm2) using a solar simulator SOL 500 (Dr. Hoenle Technology, Germany) equipped with a H1 filter transmitting wavelengths of 320-400 nm. To study UVB photoprotection, a plate was exposed to a cytotoxic dose of UVB radiation (150 mJ/cm2) using the solar simulator equipped with a H2 filter transmitting wavelengths of 295-320 nm. Intensity of UVA or UVB radiation was evaluated before each irradiation by UVA- or UVB-meter. Control (non-irradiated) plates were for the period of irradiation incubated in dark. After UVA or UVB exposure PBS with glucose was discarded and serum free medium was applied. After 24 hours (37° C., 5% CO2) cell damage was evaluated by neutral red (NR) incorporation into viable cells. Medium was discarded and NR solution (0.03% w/v, PBS) was applied. After 60 minutes NR solution was discarded, cells were fixed with a mixture of formaldehyde (0.5%, v/v) and CaCl2 (1%, m/v) in ratio 1:1 and then NR was dissolved in methanol (50%, v/v) with acetic acid (1%, v/v).
# After 5 minutes of intensive shaking absorbance was measured at 540 nm. Experiments were performed in four independent repetitions with use of […] to minimize individual sensitivity of donor cells. Photoprotective effect was evaluated by comparison of experimental data (absorbance) of test compounds with a positive control and a negative control (according to the following equation: […]
# As . . . absorbance of sample (cells pre-incubated with test compounds in serum free medium and irradiated)
# Anc . . . absorbance of negative control (cells pre-incubated with s DMSO in serum free medium and non-irradiated=incubated in dark)
# Apc . . . absorbance of positive control (cells pre-incubated with s DMSO in serum free medium and irradiated)
# [2] = Table 17: UVA-induced damage (10 J/cm2), 3.9 μmol/l
# [3] = Table 17: UVA-induced damage (10 J/cm2), 7.8 μmol/l
# [4] = Table 17: UVA-induced damage (10 J/cm2), 15.6 μmol/l
# [5] = Table 17: UVA-induced damage (10 J/cm2), 31.3 μmol/l
# [6] = Table 18: titled UVA-induced damage, 3.9 μmol/l
# [7] = Table 18: titled UVA-induced damage, 7.8 μmol/l
# [8] = Table 18: titled UVA-induced damage, 15.6 μmol/l
# [9] = Table 18: titled UVA-induced damage, 31.3 μmol/l
SMILES,"NHDF viability ([1]; +UVA 5.0 J/cm^2, 3.9 μmol/l) [% control]","NHDF viability ([1]; +UVA 5.0 J/cm^2, 7.8 μmol/l) [% control]","NHDF viability ([1]; +UVA 5.0 J/cm^2, 15.6 μmol/l) [% control]","NHDF viability ([1]; +UVA 5.0 J/cm^2, 31.3 μmol/l) [% control]","NHDF viability ([1]; +UVA 5.0 J/cm^2, 62.5 μmol/l) [% control]","NHDF viability ([1]; +UVA 5.0 J/cm^2, 125 μmol/l) [% control]","NHDF viability ([1]; −UVA, 3.9 μmol/l) [% control]","NHDF viability ([1]; −UVA, 7.8 μmol/l) [% control]","NHDF viability ([1]; −UVA, 15.6 μmol/l) [% control]","NHDF viability ([1]; −UVA, 31.3 μmol/l) [% control]","NHDF viability ([1]; −UVA, 62.5 μmol/l) [% control]","NHDF viability ([1]; −UVA, 125 μmol/l) [% control]",Protection (%) (HaCaT; [2]),Protection (%) (HaCaT; [3]),Protection (%) (HaCaT; [4]),Protection (%) (HaCaT; [5]),Protection (%) (HaCaT; [6]),Protection (%) (HaCaT; [7]),Protection (%) (HaCaT; [8]),Protection (%) (HaCaT; [9]),also measured
"c1nc(NCC2CCCO2)c2ncn(C3CCCO3)c2n1 (stereo not shown) [Compound 1, 6-(tetrahydrofuran-2-ylmethylamino)-9-(tetrahydrofuran-2-yl)purine]",105.1,110.6,106.8,109.5,103.3,107.5,96.6,106.5,99.6,102.4,102.3,109.7,–,–,–,–,–,–,–,–,–
"OCc1ccc(CNc2ncnc3c2ncn3C2CCCO2)o1 (stereo not shown) [Compound 3, 6-(5-hydroxymethylfuran-2-ylmethylamino)-9-(tetrahydrofuran-2-yl)purine]",101.04,106.46,102.28,107.4,110.49,111.8,103,104.9,104.2,107.7,106.6,110.4,26.8,34.3,46.0,50.7,27.3,46.5,47.8,53.8,–
"c1csc(CNc2ncnc3c2ncn3C2CCCO2)c1 (stereo not shown) [Compound 9, 6-(thiophen-2-ylmethylamino)-9-(tetrahydrofuran-2-yl)purine]",97.8,102.3,100.8,105.9,102.8,106.3,100,103,100.5,106.7,107.9,108.4,72.1,70.3,66.8,61.4,48.8,56,55.7,56.5,–
"Clc1nc(NCc2ccco2)c2ncn(C3CCCO3)c2n1 (stereo not shown) [Compound 15, 2-chloro-6-furfurylamino-9-(tetrahydrofuran-2-yl)purine]",100.1,101.5,102.6,102.9,103.3,97.3,100.3,103.5,104.3,105.4,106.3,101.2,41.2,56.9,55.3,76.7,12.3,35.3,37.8,51.3,–
"Clc1nc(NCC2CCCO2)c2ncn(C3CCCO3)c2n1 (stereo not shown) [Compound 20, 2-chloro-6-(tetrahydrofuran-2-ylmethylamino)-9-(tetrahydrofuran-2-yl)purine]",100.1,102.9,100.4,102.7,105.1,104.8,103.1,102.9,100.6,105.6,102,104,12.3,25.0,28.9,31.6,45.7,66.2,64,75.2,–
"CN(C)CCCN1c2ccccc2Sc2ccc(Cl)cc21 [chlorpromazine, reference compound]",–,–,–,–,–,–,–,–,–,–,–,–,–,–,–,–,–,–,–,–,"viability of NHDF cells ([1]; UVA+, 6.3 μmol/l): below 80 % of control; viability of NHDF cells ([1]; UVA−, 25 μmol/l): below 80%"
